Assay results: US9693556B2, “Herbicidal pyridazinone derivatives” (SYNGENTA LIMITED, priority 2011, dated 2017)

Legend:
Type in all cases: in vivo
[1] = system: Alopecurus myosuroides (ALOMY); test: Pre-emergence herbicidal glasshouse test on Alopecurus myosuroides; details: pre-emergence; 1000 g/h; evaluated after 13 days
Summary of the method: (§1)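 Steps: sow seeds in standard soil; cultivate 1 d (pre-) or 8 d (post-emergence) at 24/16 °C, 14 h light, 65% humidity; spray 1000 g/h in acetone/water plus Tween 20; grow on, watering twice daily; score percentage damage after 13 d.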

Setaria faberi (SETFA) [2] = test: Pre-emergence herbicidal glasshouse test on Setaria faberi; details: pre-emergence; 1000 g/h; evaluated after 13 days
Summary of the method: as §1

[3] = system: Echinochloa crus-galli (ECHCG); test: Pre-emergence herbicidal glasshouse test on Echinochloa crus-galli; details: pre-emergence; 1000 g/h; evaluated after 13 days
Summary of the method: as §1

Solanum nigrum (SOLNI) [4] = test: Pre-emergence herbicidal glasshouse test on Solanum nigrum; details: pre-emergence; 1000 g/h; evaluated after 13 days
Summary of the method: as §1

[5] = system: Amaranthus retoflexus (AMARE); test: Pre-emergence herbicidal glasshouse test on Amaranthus retoflexus; details: pre-emergence; 1000 g/h; evaluated after 13 days
Summary of the method: as §1

[6] = system: Ipomoea hederacea (IPOHE); test: Pre-emergence herbicidal glasshouse test on Ipomoea hederacea; details: pre-emergence; 1000 g/h; evaluated after 13 days
Summary of the method: as §1

[7] = system: Alopecurus myosuroides (ALOMY); test: Post-emergence herbicidal glasshouse test on Alopecurus myosuroides; details: post-emergence; 1000 g/h; evaluated after 13 days
Summary of the method: as §1

Setaria faberi (SETFA) [8] = test: Post-emergence herbicidal glasshouse test on Setaria faberi; details: post-emergence; 1000 g/h; evaluated after 13 days
Summary of the method: as §1

[9] = system: Echinochloa crus-galli (ECHCG); test: Post-emergence herbicidal glasshouse test on Echinochloa crus-galli; details: post-emergence; 1000 g/h; evaluated after 13 days
Summary of the method: as §1

Solanum nigrum (SOLNI) [10] = test: Post-emergence herbicidal glasshouse test on Solanum nigrum; details: post-emergence; 1000 g/h; evaluated after 13 days
Summary of the method: as §1

[11] = system: Amaranthus retoflexus (AMARE); test: Post-emergence herbicidal glasshouse test on Amaranthus retoflexus; details: post-emergence; 1000 g/h; evaluated after 13 days
Summary of the method: as §1

[12] = system: Ipomoea hederacea (IPOHE); test: Post-emergence herbicidal glasshouse test on Ipomoea hederacea; details: post-emergence; 1000 g/h; evaluated after 13 days
Summary of the method: as §1

In the case of `COc1cccn(-c2cnn(C)c(=O)c2O)c1=O` [Compound 1.070], the “PRE Application ALOMY herbicidal damage (five point scale)” value (“PRE Application ALOMY herbicidal damage” for short) [1] is reported as 1 (1=0-19% damage), the “PRE Application SETFA herbicidal damage (five point scale)” value (from here on “PRE Application SETFA herbicidal damage”) (Setaria faberi (SETFA) [2]) is reported as 1 (1=0-19% damage) and the “PRE Application ECHCG herbicidal damage (five point scale)” value (from here on “PRE Application ECHCG herbicidal damage”) [3] is reported as 1 (1=0-19% damage). The “PRE Application SOLNI herbicidal damage (five point scale)” value (from here on “PRE Application SOLNI herbicidal damage”) (Solanum nigrum (SOLNI) [4]) was 1 (1=0-19% damage), the “PRE Application AMARE herbicidal damage (five point scale)” value (from here on “PRE Application AMARE herbicidal damage”) [5] was 1 (1=0-19% damage) and the “PRE Application IPOHE herbicidal damage (five point scale)” value (from here on “PRE Application IPOHE herbicidal damage”) [6] was 1 (1=0-19% damage). For the same compound, the “POST Application ALOMY herbicidal damage (five point scale)” value (from here on “POST Application ALOMY herbicidal damage”) [7] was 1 (1=0-19% damage), the “POST Application SETFA herbicidal damage (five point scale)” value (shortened to “POST Application SETFA herbicidal damage”) (Setaria faberi (SETFA) [8]) was 4 (4=60-79% damage) and the “POST Application ECHCG herbicidal damage (five point scale)” value (“POST Application ECHCG herbicidal damage” below) [9] was 4 (4=60-79% damage). For the same compound, the “POST Application SOLNI herbicidal damage (five point scale)” value (from here on “POST Application SOLNI herbicidal damage”) (Solanum nigrum (SOLNI) [10]) was 4 (4=60-79% damage), the “POST Application AMARE herbicidal damage (five point scale)” value (shortened to “POST Application AMARE herbicidal damage”) [11] was 3 (3=40-59% damage) and the “POST Application IPOHE herbicidal damage (five point scale)” value (“POST Application IPOHE herbicidal damage” below) [12] was 1 (1=0-19% damage).

In the case of `Cn1ncc(-c2ccc(C#N)cc2C(F)(F)F)c(O)c1=O` [Compound 1.071], the “PRE Application ALOMY herbicidal damage” value [1] is reported as 4 (4=60-79% damage), the “PRE Application SETFA herbicidal damage” value (Setaria faberi (SETFA) [2]) is reported as 4 (4=60-79% damage) and the “PRE Application ECHCG herbicidal damage” value [3] is reported as 5 (5=80-100% damage). The “PRE Application SOLNI herbicidal damage” value (Solanum nigrum (SOLNI) [4]) was 5 (5=80-100% damage), the “PRE Application AMARE herbicidal damage” value [5] was 5 (5=80-100% damage) and the “PRE Application IPOHE herbicidal damage” value [6] was 2 (2=20-39% damage). For the same compound, the “POST Application ALOMY herbicidal damage” value [7] was 3 (3=40-59% damage), the “POST Application SETFA herbicidal damage” value (Setaria faberi (SETFA) [8]) was 4 (4=60-79% damage) and the “POST Application ECHCG herbicidal damage” value [9] was 5 (5=80-100% damage). The “POST Application SOLNI herbicidal damage” value (Solanum nigrum (SOLNI) [10]) was 5 (5=80-100% damage), the “POST Application AMARE herbicidal damage” value [11] was 5 (5=80-100% damage) and the “POST Application IPOHE herbicidal damage” value [12] was 5 (5=80-100% damage).

`COCCOCc1nc(C(F)(F)F)ccc1-c1cnn(C)c(=O)c1O` [Compound 1.072] was tested, and the “PRE Application ALOMY herbicidal damage” value [1] was 4 (4=60-79% damage), the “PRE Application SETFA herbicidal damage” value (Setaria faberi (SETFA) [2]) was 5 (5=80-100% damage) and the “PRE Application ECHCG herbicidal damage” value [3] was 5 (5=80-100% damage). For the same compound, the “PRE Application SOLNI herbicidal damage” value (Solanum nigrum (SOLNI) [4]) was 5 (5=80-100% damage), the “PRE Application AMARE herbicidal damage” value [5] was 5 (5=80-100% damage) and the “PRE Application IPOHE herbicidal damage” value [6] was 5 (5=80-100% damage). The “POST Application ALOMY herbicidal damage” value [7] was 4 (4=60-79% damage), the “POST Application SETFA herbicidal damage” value (Setaria faberi (SETFA) [8]) was 5 (5=80-100% damage) and the “POST Application ECHCG herbicidal damage” value [9] was 5 (5=80-100% damage). The “POST Application SOLNI herbicidal damage” value (Solanum nigrum (SOLNI) [10]) was 5 (5=80-100% damage), the “POST Application AMARE herbicidal damage” value [11] was 5 (5=80-100% damage) and the “POST Application IPOHE herbicidal damage” value [12] was 5 (5=80-100% damage).

In the case of `COCc1nc(C(F)(F)F)ccc1-c1cnn(C)c(=O)c1O` [Compound 1.073], the “PRE Application ALOMY herbicidal damage” value [1] is reported as 5 (5=80-100% damage), the “PRE Application SETFA herbicidal damage” value (Setaria faberi (SETFA) [2]) is reported as 5 (5=80-100% damage) and the “PRE Application ECHCG herbicidal damage” value [3] is reported as 5 (5=80-100% damage). The “PRE Application SOLNI herbicidal damage” value (Solanum nigrum (SOLNI) [4]) was 5 (5=80-100% damage), the “PRE Application AMARE herbicidal damage” value [5] was 5 (5=80-100% damage) and the “PRE Application IPOHE herbicidal damage” value [6] was 2 (2=20-39% damage). For the same compound, the “POST Application ALOMY herbicidal damage” value [7] was 4 (4=60-79% damage), the “POST Application SETFA herbicidal damage” value (Setaria faberi (SETFA) [8]) was 5 (5=80-100% damage) and the “POST Application ECHCG herbicidal damage” value [9] was 5 (5=80-100% damage). For the same compound, the “POST Application SOLNI herbicidal damage” value (Solanum nigrum (SOLNI) [10]) was 5 (5=80-100% damage), the “POST Application AMARE herbicidal damage” value [11] was 5 (5=80-100% damage) and the “POST Application IPOHE herbicidal damage” value [12] was 5 (5=80-100% damage).

In the case of `Cn1ncc(-c2cc3cc(F)cnc3n(-c3ccsc3)c2=O)c(O)c1=O` [Compound 1.074], the “PRE Application ALOMY herbicidal damage” value [1] is reported as 2 (2=20-39% damage), the “PRE Application SETFA herbicidal damage” value (Setaria faberi (SETFA) [2]) is reported as 1 (1=0-19% damage) and the “PRE Application ECHCG herbicidal damage” value [3] is reported as 4 (4=60-79% damage). For the same compound, the “PRE Application SOLNI herbicidal damage” value (Solanum nigrum (SOLNI) [4]) was 1 (1=0-19% damage), the “PRE Application AMARE herbicidal damage” value [5] was 5 (5=80-100% damage) and the “PRE Application IPOHE herbicidal damage” value [6] was 1 (1=0-19% damage). The “POST Application ALOMY herbicidal damage” value [7] was 2 (2=20-39% damage), the “POST Application SETFA herbicidal damage” value (Setaria faberi (SETFA) [8]) was 5 (5=80-100% damage) and the “POST Application ECHCG herbicidal damage” value [9] was 5 (5=80-100% damage). For the same compound, the “POST Application SOLNI herbicidal damage” value (Solanum nigrum (SOLNI) [10]) was 5 (5=80-100% damage), the “POST Application AMARE herbicidal damage” value [11] was 5 (5=80-100% damage) and the “POST Application IPOHE herbicidal damage” value [12] was 5 (5=80-100% damage).
